Results published in paper PMC7033111, “Rational design of novel benzisoxazole derivatives with acetylcholinesterase inhibitory and serotoninergic 5-HT4 receptors activities for the treatment of Alzheimer’s disease” (Scientific Reports, 2020).
Values joined by “and” are separate entries in the source; they are usually repeats but may differ in a detail not shown here. Equal values may be shown once. Read-outs that look alike come from different tables or passages of the source.

Columns and labels:
[1] = molecular target: T1, hAChE (AChE from human erythrocytes) (Homo sapiens, UniProt P22303); assay: hAChE inhibition, spectrometric Ellman method; assay type: biochemical; conditions: for inhibition at 1 µM: 10^−6 M compound; for IC50: Ellman method, n = 2; for inhibition of the enzyme (AChE), in words: statement in discussion
T1 construct: AChE from human erythrocytes; purchased Sigma Aldrich; host or cells: human erythrocytes (tissue-derived enzyme)
T1 sequence (P22303 other isoform, or with tags, fused parts or gaps): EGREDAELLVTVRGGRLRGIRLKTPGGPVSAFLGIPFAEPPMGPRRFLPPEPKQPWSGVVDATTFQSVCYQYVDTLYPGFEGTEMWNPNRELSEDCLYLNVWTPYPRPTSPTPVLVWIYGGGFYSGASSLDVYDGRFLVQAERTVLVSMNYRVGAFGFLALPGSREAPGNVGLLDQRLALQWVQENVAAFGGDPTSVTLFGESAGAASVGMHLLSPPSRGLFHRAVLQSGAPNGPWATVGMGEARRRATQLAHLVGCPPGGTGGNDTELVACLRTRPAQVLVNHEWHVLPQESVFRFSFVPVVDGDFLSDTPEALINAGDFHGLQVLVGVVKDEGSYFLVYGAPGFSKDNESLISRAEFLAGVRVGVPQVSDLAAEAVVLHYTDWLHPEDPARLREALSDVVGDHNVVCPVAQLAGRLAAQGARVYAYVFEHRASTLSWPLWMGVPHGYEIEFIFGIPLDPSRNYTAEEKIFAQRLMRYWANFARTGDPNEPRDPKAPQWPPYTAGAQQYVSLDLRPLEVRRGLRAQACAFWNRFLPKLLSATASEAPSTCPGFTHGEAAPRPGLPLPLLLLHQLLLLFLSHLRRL
Protocol: Inhibitory capacity of compounds on AChE biological activity was evaluated through the use of the spectrometric method of Ellman[39]. Acetylthiocholine and 5,5-dithiobis-(2-nitrobenzoic) acid (DTNB) were purchased from Sigma Aldrich. AChE from human erythrocytes (buffered aqueous solution, ≥500 units/mg protein (BCA), Sigma Aldrich) was diluted in 20 mM HEPES buffer pH 8, 0.1% Triton X-100 such as to have enzyme solution with 0.25 unit/mL enzyme activity. In the procedure, 100 μL of 0.3 mM DTNB dissolved in phosphate buffer pH 7.4 were added into the 96 wells plate followed by 50 μL of test compound solution and 50 μL of enzyme ([…]). After 5 min of preincubation at 25 °C, the reaction was then initiated by the injection of 50 μL of 10 mM acetylthiocholine iodide solution. The hydrolysis of acetylthiocholine was monitored by the formation of yellow 5-thio-2-nitrobenzoate anion as the result of the reaction of DTNB with thiocholine, released by the enzymatic hydrolysis of acetylthiocholine, at a wavelength of 412 nm using a 96-well microplate plate reader (TECAN Infinite M200, Lyon, France). Test compounds were dissolved in analytical grade DMSO. Donepezil was used as a reference standard. The rate of absorbance increase at 412 nm was followed every minute for 10 min. Assays were performed with a blank containing all components except acetylthiocholine, in order to account for non-enzymatic reaction. The reaction slopes were compared and the percent inhibition due to the presence of test compounds was calculated by the following expression: 100 − (vi/v0 × 100) where vi is the rate calculated in the presence of inhibitor and v0 is the enzyme activity.
For the compounds with significant inhibition (≥50%), IC50 values were determined graphically by plotting the % inhibition versus the logarithm of six inhibitor concentrations in the assay solution using the Origin software.

[2] = molecular target: T2, human 5-HT4R (5-HT4(b) receptor membranes) (Homo sapiens, UniProt Q13639); assay: h5-HT4R competition binding with [3H]-GR113808; conditions: for inhibition: 0.2 nM [3H]-GR113808
T2 construct: purchased Millipore HTS110M
T2 sequence (Q13639 whole entry): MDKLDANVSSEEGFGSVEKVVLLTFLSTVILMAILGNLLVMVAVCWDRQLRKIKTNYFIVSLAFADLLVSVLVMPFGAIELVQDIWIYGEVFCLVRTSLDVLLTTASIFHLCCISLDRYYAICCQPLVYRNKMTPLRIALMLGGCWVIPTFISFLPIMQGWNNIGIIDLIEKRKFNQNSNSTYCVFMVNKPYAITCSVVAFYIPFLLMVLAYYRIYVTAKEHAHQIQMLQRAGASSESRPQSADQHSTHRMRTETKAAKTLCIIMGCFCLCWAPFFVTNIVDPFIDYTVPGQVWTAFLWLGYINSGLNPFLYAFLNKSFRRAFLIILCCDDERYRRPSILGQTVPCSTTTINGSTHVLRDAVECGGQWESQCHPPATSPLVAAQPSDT
Protocol: The competition studies used membrane preparations made from proprietary stable recombinant cell lines expressing the 5-HT4(b) receptor to ensure high-level of GPCR surface expression (HTS110M, Millipore). Membranes (2.5 µg protein) were incubated in duplicate at 25 °C for 60 min in the absence or the presence of 10^–6 or 10^–8M of each drug and 0.2 nM [^3H]-GR 113808 (VT 240, ViTrax) in 25 mM Tris buffer (pH 7.4, 25 °C). At the end of the incubation, homogenates were filtered through Whatman GF/C filters (Alpha Biotech) pre-soaked with 0.5% polyethylenimine using a Brandel cell harvester. Filters were subsequently washed three times with 4 mL of ice-cold 25 mM Tris buffer (pH 7.4, 4 °C). Non-specific binding was evaluated in parallel in the presence of 30 μM serotonin.
For some of these compounds, affinity constants were calculated from five-point inhibition curves using the EBDA-Ligand software and expressed as Ki ± SD[41].

[3] = molecular target: T3, HA-tagged human 5-HT4 receptor (Homo sapiens, UniProt Q13639); assay: cAMP production, agonist mode, transfected COS-7 cells; assay type: cell-based; conditions: for Log(EC50): given as Log(EC50); for 5-HT4 pharmacological profile (agonism assay): cAMP production, COS-7 cells
T3 construct: HA; expressed in transfected cells; host or cells: COS-7 cells (ATCC CRL-1651), transient transfection
T3 sequence (Q13639 whole entry): as above
Source text: (§1) Figure 5 Determination of the 5-HT4 pharmacological profiles for compounds 16, 32a and 33 by quantification of cAMP production. (A) Assay to determine the agonism activity (with serotonin and the partial agonist RS-67333 as references). (B) Assay to determine the antagonism activity (with the antagonist GR113808 as reference). Data presented are the mean of three independent experiments performed in duplicate.
(§2) COS-7 cells were purchased from ATCC (ATCC CRL-1651; LGC […], Molsheim, France). T were grown in Dulbecco’s modified Eagle medium (DMEM) supplemented with 10% dialyzed fetal calf serum (dFCS) and antibiotics. Cells were transiently transfected with plasmid encoding HA-tagged human 5-HT4 receptor, then seeded in 96-well plates (35,000 cells/well). 24 hrs after transfection, cells were washed once with 200 µl of HBS (20 mM HEPES; 150 mM NaCl; 4.2 mM KCl; 0.9 mM CaCl2; 0.5 mM MgCl2; 0.1% glucose; 0.1% BSA) and, after HBS removal, exposed to the indicated concentrations of 5-HT4R ligands in the presence of 0.1 mM of the phosphodiesterase inhibitor RO-20-1724, at 37 °C in 100 µl of HBS. After 10 min, cells were then lysed by addition of the same volume of Triton-X100 (0.1%) during 30 min at 37 °C. The competition assay in antagonist mode was performed as follows: after one wash in 200 µl of HBS, cells were exposed to 5-HT4R ligands at twice the indicated concentration, at 37 °C in 50 µl of HBS. After 7 min, serotonin (final concentration of 5.10^−7M) was added in 50 µl of HBS in the presence of the phosphodiesterase inhibitor RO-20-1724 (final concentration of 0.1 mM). After 10 min, cells were then lysed by addition of the same volume of Triton-X100 (0.1%) during 30 min at 37 °C. Quantification of cAMP production was performed by HTRF by using the cAMP Dynamic kit (Cisbio Bioassays) according to the manufacturer’s instructions

[4] = molecular target: T3, HA-tagged human 5-HT4 receptor; assay: cAMP production, competition assay in antagonist mode vs serotonin, transfected COS-7 cells; assay type: cell-based; conditions: for 5-HT4 pharmacological profile (antagonism assay): cAMP production
Source text: as §1, §2

BuChE = system: BuChE; design: method as in PMID 8064800; conditions: cited from earlier work
[5] = design: method as in PMID 8064800; conditions: cited from earlier work
[6] = design: method as in PMID 8064800; conditions: mouse; cited from earlier work
AChE = conditions: read-out: AChE IC50; cited from earlier work
5-HT4dR = conditions: cited from earlier work
[7] = 10^−6 M compound, read-out: h5-HT4R % inhibition at 10^−6 M (converted)
[8] = 10^−8 M compound, read-out: h5-HT4R % inhibition at 10^−8 M (converted)
[9] = agonist mode, Moy. (mean of HP5-HP7), unit not given
[10] = agonist mode, individual experiments HP5, HP6, HP7
[11] = agonist mode, individual experiments HP5, HP6, HP7, unit not given
[12] = IC50 (5-HT4R antagonist, cAMP production), COS-7 cells, serotonin 5.10^−7 M, mean of three experiments
[13] = IC50, antagonist mode, individual experiments HP8, HP10, HP11, unit inferred
[14] = Log(IC50), antagonist mode, Moy., printed as Log(IC50), negative
[15] = antagonist mode, individual experiments HP8, HP10, HP11

| Compound | inhibition at 1 µM [1] | IC50 [1] | Ki [2] | inhibition [2, 7] | inhibition [2, 8] | other results |
| --- | --- | --- | --- | --- | --- | --- |
| c1cc(OC2CCCC2)c2c(CCC3CCN(CC4CCCCC4)CC3)noc2c1 [Compound 32d] | 52% | 1000 ± 84 nM | 616 ± 67 nM | 100% | 0% | – |
| CC(C)CN1CCC(COc2noc3ccccc23)CC1 [Compound 13] | 8% | – | 20.8 ± 12.5 nM | 100% | 59% | – |
| c1ccc(COc2cccc3onc(CCC4CCN(CC5CCCCC5)CC4)c23)cc1 [Compound 32e] | 10% | – | 2920 ± 781 nM | 96% | 0% | – |
| COc1cccc2onc(OCC3CCN(CC(C)C)CC3)c12 [Compound 16] | 23% | – | 4.1 ± 0.4 nM | 100% | 100% | inhibition of the enzyme (AChE), in words [1]: did not show any inhibition; Top AMPc ([3]; agonist mode, Moy.): 4%; EC50 [3, 9]: ns; Log(EC50) ([3]; agonist mode, Moy., negative): ns; Top AMPc [3, 10]: 5.63% and 0.00% and 6.91%; Log(EC50) [3, 10]: ns; EC50 [3, 11]: ns; 5-HT4 pharmacological profile (agonism assay) [3]: not agonist; IC50 [4, 12]: 5.6 ± 2.2 nM; IC50 [4, 13]: 5.07 nM and 2.01 nM and 9.78 nM; IC50 [4, 14]: 5.01 nM; Bott. AMPc ([4]; antagonist mode, Moy.): 31%; Bott. AMPc [4, 15]: 39.69% and 29.62% and 24.98%; 5-HT4 pharmacological profile (antagonism assay) ([4]; COS-7 cells): highly potent antagonist |
| c1ccc(CN2CCC(COc3noc4ccccc34)CC2)cc1 [Compound 12] | – | – | 42.4 ± 12.2 nM | 99% | 29% | – |
| c1ccc2c(CCC3CCN(CC4CCCCC4)CC3)noc2c1 [Compound 21] | 84% | 240 ± 59 nM | 139 ± 9 nM | 89% | 4% | – |
| c1ccc2c(OCC3CCN(CC4CCCCC4)CC3)noc2c1 [Compound 11, 3-[[1-(cyclohexylmethyl)-4-piperidyl]methoxy]-1,2-benzoxazole] | 24% | – | 9.6 ± 1.6 nM | 100% | 67% | – |
| CC(=O)Nc1ccc2c(CCC3CCN(Cc4ccccc4)CC3)noc2c1 [[B]] | – | – | – | – | – | IC50 (BuChE): 9000 nM; ratio BuAChE/AChE (BuChE; selectivity ratio): 3200; elevation of ACh in mouse [5]: dose-dependent elevation of ACh; effect on amnesia, passive avoidance model [6]: reversion of amnesia; IC50 (AChE): 2.8 nM |
| COc1cccc2onc(CCC3CCN(CC4CCCCC4)CC3)c12 [Compound 32a, 3-[2-[1-(cyclohexylmethyl)-4-piperidyl]ethyl]-4-methoxy-1,2-benzoxazole] | 94% | 63.5 ± 19.2 nM | 59 ± 8.5 nM | 100% | 13% | EC50 ([3]; EC50, agonist mode, Moy. (mean of HP5-HP7), unit inferred): 11300 nM; EC50 ([3]; EC50, agonist mode, individual experiments HP5, HP6, HP7, unit inferred): 13600 nM and 20300 nM; Top AMPc ([3]; agonist mode, Moy.): 22%; Top AMPc [3, 10]: 29.36% and 12.83% and 24.95%; 5-HT4 pharmacological profile (agonism assay) [3]: not agonist; IC50 [4, 12]: 97.2 ± 17.2 nM; IC50 [4, 13]: 129 nM and 69.5 nM and 93.6 nM; IC50 [4, 14]: 100 nM; Bott. AMPc ([4]; antagonist mode, Moy.): 33%; Bott. AMPc [4, 15]: 38.80% and 27.69% and 32.50%; 5-HT4 pharmacological profile (antagonism assay) ([4]; COS-7 cells): antagonists |
| Oc1cccc2onc(CCC3CCN(CC4CCCCC4)CC3)c12 [Compound 33] | 87% | 97.3 ± 1.5 nM | 37 ± 10.5 nM | 100% | 29% | Top AMPc ([3]; agonist mode, Moy.): -3%; EC50 [3, 9]: ns; Log(EC50) ([3]; agonist mode, Moy., negative): ns; Top AMPc [3, 10]: -15.21% and 4.96% and 0.00%; Log(EC50) [3, 10]: ns; EC50 [3, 11]: ns; 5-HT4 pharmacological profile (agonism assay) [3]: not agonist; IC50 [4, 12]: 883 ± 598 nM; Bott. AMPc ([4]; antagonist mode, Moy.): 44%; Bott. AMPc [4, 15]: 50.44% and 46.43% and 34.27%; 5-HT4 pharmacological profile (antagonism assay) ([4]; COS-7 cells): antagonists |
| CC(C)CN1CCC(CCc2noc3ccccc23)CC1 [Compound 23] | 11% | – | – | 87% | 8% | – |
| OC1(CN2CCC(COc3noc4cccc(O[C@@H]5CCOC5)c34)CC2)CCOCC1 [[A]] | – | – | – | – | – | 5-HT4dR Emax (5-HT4dR): 24%; EC50 (5-HT4dR): 0.2 nM |
| COc1cccc2onc(OCC3CCN(CC4CCCCC4)CC3)c12 [Compound 14] | 82% | 441 ± 63 nM | 2.7 ± 0.4 nM | 100% | 99% | – |
| CC(C)COc1cccc2onc(CCC3CCN(CC4CCCCC4)CC3)c12 [Compound 32c] | 42% | – | 219 ± 65 nM | 100% | 4% | inhibition of the enzyme (AChE), in words [1]: without AChE inhibition |
| CCOc1cccc2onc(CCC3CCN(CC4CCCCC4)CC3)c12 [Compound 32b] | 87% | 200 ± 32 nM | 80.5 ± 9.9 nM | 100% | 16% | – |
| c1ccc(CN2CCC(CCc3noc4ccccc34)CC2)cc1 [Compound 22] | – | – | 263 ± 11 nM | 78% | 8% | – |
| COc1cccc2onc(OCC3CCN(Cc4ccccc4)CC3)c12 [Compound 15] | 82% | 939 ± 40 nM | 3 ± 0.4 nM | 100% | 94% | – |
